Laboratory results: US20020013478A1, “Calanolide analogues and methods of their use” (Sarawak Medichem Pharmaceuticals,Inc., priority 1994, published 2002)
≈ marks a conversion by molar mass, not a printed value. Where two headings read alike, the source gives them in different places.

Legend:
Raji or Daudi cells = assay: Toxicity run with the EBV assay; format: cell-based, human; settings: Table II; for IC50: Homo sapiens
Excerpt: IC50 (50% inhibitory concentration) is the concentration required to inhibit cell proliferation by 50%

[1] = tested on: human foreskin fibroblast cells; assay: Toxicity run with the VZV assay, human foreskin fibroblast cells; format: cell-based; settings: Table II; for IC50: Homo sapiens, Fibroblast
Protocol: (§1) [table] […] The media from the wells is then aspirated and 2 mL of each drug concentration is then added to each well. The cells are then incubated in a CO2 incubator at 37° C. for 72 h. At the end of this time, the media-drug solution is removed and the cells washed. […] The cell-media mixture is then pipetted up and down vigorously to break up the cell suspension, and 0.2 mL of the mixture is added to 9.8 mL of Isoton III and counted using a Coulter Counter. Each sample is counted three times with three replicate wells per sample. The procedure for plating cells and adding drug is the same as for the MTT Assay. After drug addition, the plates are incubated for seven days in a CO2 incubator at 37° C. […] This is incubated in the CO2 incubator for one hour. The dye is aspirated and the cells are washed using a Nunc Plate Washer. […] The plates are rotated for 15 minutes and the optical densities are read at 550 nm on a plate reader.

2.2.15 cells = assay: Toxicity in 2.2.15 cells, neutral red dye uptake; format: cell-based, human; settings: Table II, read-out: HBV IC50
Protocol: Cells of 2.2.15 were grown to confluence in 96-well flat-bottomed tissue culture plates and treated with compounds (in 0.2 mL culture medium/well) as described above. Four concentrations of each compound were assayed, each in triplicate cultures, in 3- to 10-fold steps. Untreated control cultures were maintained on each 96-well plate. On each 96-well plate, wells containing no cells were used to correct for light scattering.

EBV = EBV assay: superinfection of Raji or Daudi cells with P3HR-1, immunofluorescence for EA and VCA; format: cell-based, Epstein-Barr virus; settings: Table II; for EC50: human gammaherpesvirus 4
Excerpt: There are two prototypes of infectious EBV. One is exemplified by the virus derived from supernatant fluids of the P3HR-1cell line. This cell line produces nontransforming virus that causes the production of early antigen (EA) after primary infection or superinfection of B cell lines. The other prototype is exemplified by the B-95-8 virus. This virus immortalized cord blood lymphocytes and induced tumors in marmosets.
The virus used in our assays is P3HR-1.
Ramos is an exceptional B cell line derived from Burkitt's lymphoma tumor but containing no detectable EBV genome copies and is EBNA negative. Ramos/AW was obtained by in vitro infection of Ramos with the P3HR-1 virus and contains one resident EBV genome copy/cell. Raji is a Burkitt's lymphoma cell line containing 60 EBV genomes/cell, and will be the primary cell used for screening antiviral activity against EBV EA expression. Daudi is a low level producer that contains 152 EBV genome copies/cell. It spontaneously expresses EBV EA in 0.25%-0.5% of the cells. It will be used in follow-up studies to confirm activity. These cell lines respond to superinfection by EBV by expressing EA(D), EA(R), and VCA. All cell lines are maintained in RPMI-1640 medium supplemented by 10% FCS, L-glutamine and 100 μg/mL gentamicin. The cultures are fed twice weekly and the cell concentration adjusted to 3×10^5/mL. The cells are kept at 37° C. in a humidified atmosphere with 5% CO2.
Cells are infected with the P3HR-1 strain of EBV and the drugs to be tested are added after adsorption (45 minutes at 37° C.) and washing of the cell cultures. The cultures are incubated for two days in complete medium to allow viral gene expression. Following the 48 hr incubation period, the number of cells of each sample are counted and smears made. Monoclonal antibodies to the different EA components and VCA are then added to the cells incubated and washed. This is followed by a fluorescein conjugated rabbit anti-mouse Ig antibody; and the number of fluorescence positive cells in the smears are counted. The total number of cells in the cultures positive for EA or VCA are then calculated and compared.

HIV-1 = settings: CEM-SS MTT assay
CEM-SS cells = assay: CEM-SS MTT assay, cytotoxicity (Table I); format: cell-based, human
VZV = VZV plaque reduction assay in human foreskin fibroblast cells; format: cell-based, varicella zoster virus; settings: Table II; for EC50: Human alphaherpesvirus 3, Fibroblast
Protocol: Two days prior to use, HFF cells are plated into six-well plates and incubated at 37° C. with 5% CO2 and 90% humidity. On the date of assay, the drug is made up at twice the desired concentration in 2x MEM and then serially diluted 1:5 in 2x MEM using six concentrations of drug. The initial starting concentration is usually 200 gg/mL down to 0.06 μg/mL. The virus to be used is diluted in MEM containing 10% FBS to a desired concentration which will give 20-30 plaques per well. The media is then aspirated from the wells and 0.2 mL of virus is added to each well in duplicate with 0.2 mL of media being added to drug toxicity wells. The plates are then incubated for one hour with shaking every fifteen minutes. After the incubation period, an equal amount of 1% agarose was added to an equal volume of each drug dilution. This will give final drug concentrations beginning with 100 μg/mL and ending with 0.03 μg/mL and a final agarose overlay concentration of 0.5%. The drug agarose mixture is applied to each well in 2 mL volume and the plates then incubated for three days, after which the cells were stained with a 1.5% solution of neutral red. At the end of 4-6hr incubation period, the stain is aspirated, and plaques counted using a stereomicroscope at lOx magnification.
The procedure is essentially the same as for the HSV plaque assay described above with two exceptions:
1. After addition of the drug, the plates are incubated for ten days.
2. On days three and six, an additional 1 mL overlay with equal amounts of 2x MEM and 1% agarose are added.

HCMV = HCMV semi-automated CPE-inhibition assay in human foreskin fibroblast cells; format: cell-based, human cytomegalovirus; settings: Table II; for EC50: Human betaherpesvirus 5, Fibroblast
HBV = HBV replication in cultures of 2.2.15 cells, extracellular HBV virion DNA (primary assay); settings: for EC50: read-out: HBV EC50
[2] = tested on: human foreskin fibroblast cells; assay: Toxicity run with the HCMV assay, human foreskin fibroblast cells; format: cell-based; settings: Table II; for IC50: Homo sapiens, Fibroblast
Protocol: as §1

[3] = tested on: HCMV isolates Towne, AD169, E. Mann, Coffman, C9208; assay: Anti-CMV plaque reduction assay against various laboratory and clinical isolates (Example 40); format: cell-based, human cytomegalovirus
Protocol: On the date of assay, the drug is made up at twice the desired concentration in 2x MEM and then serially diluted 1:5 in 2x MEM using six concentrations of drug. The initial starting concentration is usually 200 gg/mL down to 0.06 μg/mL. […] The media is then aspirated from the wells and 0.2 mL of virus is added to each well in duplicate with 0.2 mL of media being added to drug toxicity wells. The plates are then incubated for one hour with shaking every fifteen minutes. […] This will give final drug concentrations beginning with 100 μg/mL and ending with 0.03 μg/mL and a final agarose overlay concentration of 0.5%. The drug agarose mixture is applied to each well in 2 mL volume and the plates then incubated for three days, after which the cells were stained with a 1.5% solution of neutral red. At the end of 4-6hr incubation period, the stain is aspirated, and plaques counted using a stereomicroscope at lOx magnification. The procedure again is nearly the same as for HSV with a few minor changes. […] The assay is incubated for 14 days with the additional 1 mL overlays being applied on days four and eight. The procedure for the liquid overlay plaque assay is similar to that using the agarose overlay. The procedure for adding the virus is the same as for the regular plaque assay. The drugs are made up in a concentration to be used in MEM with 2% FBS. The drugs are not made up at 2x concentration as in the previous assays but are made up at the desired concentration. For HSV-1 and HSV-2 assays, an antibody preparation obtained from Baxter Health Care Corporation is diluted 1:500 and added to the media that the drug is diluted in. For CMV and VZV, no antibody in the overlay is utilized. For the CMV assay, additional medium without new drug is added on day five and allowed to incubate for a total of 10 days. For VZV, additional medium is added on day five and incubated for a total of 10 days. At the end of the incubation period for all of the assays, 2 mL of 1:10 dilution of stock neutral is added to each well incubated for six hours. The liquid is then aspirated off and plaques enumerated using a stereomicroscope. Five calanolide analogues, prepared as described above, were further evaluated for their anti-HCMV activity in plaque reduction assay against various laboratory and clinical isolates (Towne, AD 169, E. Mann, Coffinan, and […]).

SMILES | EBV IC50 (Raji or Daudi cells) [µg/mL] | VZV IC50 [1] [µg/mL] | IC50 (2.2.15 cells) [µM] | EBV EC50 (EBV) [µg/mL] | VZV EC50 (VZV) [µg/mL] | HCMV EC50 (HCMV) [µg/mL] | EC50 (HBV; Table II) [µM] | HCMV IC50 [2] [µg/mL] | IC50 (Raji or Daudi cells) [µg/mL] | IC50 (2.2.15 cells; Homo sapiens) [µM] | EC50 (EBV) [µg/mL] | EC50 (HCMV) [µg/mL] | EC50 (HBV; Hepatitis B virus) [µM] | IC50 [2] [µg/mL] | further results
CCCc1cc(=O)oc2c3c(c4c(c12)OC(C)(C)C=C4)OC(CC)C(C)C3=O (racemic) [(±)-15c, (±)-10,11-trans-10,11-Dihydro-10-ethyl-4-propyl-6,6,11-trimethyl-2H,6H,12H-benzo[1,2-b:3,4-b ″]tripyran-2,12-dione] | >50 | 68.0 | 152 | >50 | >20 | >20 | > 10 | 77.6 |  |  |  |  |  |  | Maximum Protection (%) (HIV-1): 47%; IC50 (CEM-SS cells): 6.8 µM
CCCc1cc(=O)oc2c3c(c4c(c12)OC(C)(C)CC4)OC(C)C(C)C3=O (single isomer, unassigned; (+)) [(+)-18a] | >50 | >100 | 88 | >50 | >100 | >100 | > 10 | >100 |  |  |  |  |  |  | 
CCCc1cc(=O)oc2c3c(c4c(c12)OC(C)(C)C=C4)OC(C(C)C)C(C)C3=O (racemic) [(+)-15e] | >50 | >100 | 86 | >50 | >100 | >20 | > 10 | 75.3 |  |  |  |  |  |  | 
CCCc1cc(=O)oc2c1c1c(c3oc(C)c(C)c(=O)c32)C=CC(C)(C)O1 [Compound 5, 6,6,10,11-tetramethyl-4-propyl-2H,6H,12H-benzo[1,2-b:3,4-b′:5,6-b″]tripyran-2,12-dione] |  |  |  |  |  |  |  |  | > 50 | 2080 | > 50 | > 100 | > 10 | > 100 | IC50 [1]: 52.2 µg/mL (≈ 142 µM); EC50 (VZV): > 20 µg/mL
CCCc1cc(=O)oc2c3c(c4c(c12)OC(C)(C)C=C4)OC(C)C(C)C3=O (single isomer, unassigned; (-)) [(−)-7] | 23.7 |  | 327 | >20 |  | >20 | > 10 | 23.7 |  |  |  |  |  |  | 
CCCc1cc(=O)oc2c3c(c4c(c12)OC(C)(C)C=C4)O[C@H](C)[C@H](C)C3=O [(+)-7a] |  |  |  |  |  |  |  |  | 11.9 (≈ 32.3 µM) | 382 | > 4 | > 4 | 2.5 | 11.6 (≈ 31.5 µM) | EC90 (HBV; Hepatitis B virus, read-out: HBV EC90): 11 µM
CCCc1cc(=O)oc2c3c(c4c(c12)OC(C)(C)C=C4)OC(C)(C)C(C)C3=O (racemic) [(±)-15b, (±)-10,11-Dihydro-6,6,10,10,11-pentamethyl-4-propyl-2H, 6H, 12H-benzo[1,2-b:3,4-b′:5,6-b″]tripyran-2,12-dione] |  |  |  |  |  |  |  |  | > 50 | 307 | > 50 | > 20 | > 10 | 52.3 (≈ 137 µM) | IC50 [1]: 66.7 µg/mL (≈ 174 µM); IC50 (CEM-SS cells; Homo sapiens): 21 µM; EC50 (VZV): > 20 µg/mL
CCCc1cc(=O)oc2c3c(c4c(c12)OC(C)(C)C=C4)O[C@@H](C)[C@H](C)[C@@H]3O [(−)-calanolide B, (-)-Calanolide B] | >50 | 20.0 | 1000 | >50 | >4.0 | 2.6 | > 10 | 78.4 |  |  |  |  |  |  | EC50 ([3]; isolate AD169): 3.16 µM; EC50 ([3]; isolate C9208): 2.01 µM; EC50 ([3]; isolate Coffman): 3.18 µM; EC50 ([3]; isolate E. Mann): 3.16 µM; EC50 ([3]; isolate Towne): 3.2 µM
